The record followed here is patent publication US20070282007A1, “TREATMENT OF PAIN DISORDERS WITH trans 4-(3,4-DICHLOROPHENYL)-1,2,3,4-TETRAHYDRO-1-NAPHTHALENAMINE AND ITS FORMAMIDE” (SEPRACOR INC., priority 2006, published 2007).

One assay has as its target T1, M5 (Homo sapiens, UniProt P08912).
T1 sequence (P08912 1-532): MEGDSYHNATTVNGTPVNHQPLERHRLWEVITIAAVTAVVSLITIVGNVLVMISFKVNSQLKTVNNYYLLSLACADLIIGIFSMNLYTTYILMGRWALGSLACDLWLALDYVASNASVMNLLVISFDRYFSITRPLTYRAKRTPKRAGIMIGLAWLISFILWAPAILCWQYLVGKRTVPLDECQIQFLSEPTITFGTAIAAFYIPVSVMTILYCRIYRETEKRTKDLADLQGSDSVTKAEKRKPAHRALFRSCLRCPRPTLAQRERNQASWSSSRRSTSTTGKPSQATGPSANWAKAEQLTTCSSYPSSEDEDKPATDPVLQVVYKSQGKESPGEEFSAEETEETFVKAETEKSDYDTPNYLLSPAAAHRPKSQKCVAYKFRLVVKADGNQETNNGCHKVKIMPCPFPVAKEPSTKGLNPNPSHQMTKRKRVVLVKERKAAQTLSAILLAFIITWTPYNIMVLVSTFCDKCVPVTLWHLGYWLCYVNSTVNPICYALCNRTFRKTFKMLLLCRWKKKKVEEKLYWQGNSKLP
Description: In vitro radioligand binding assay, M5.

The target in a further assay is 5-HT1B (Homo sapiens, UniProt P28222). The assay is described as follows: In vitro radioligand binding assay, 5-HT1B.
The target in assay [1] is Ca^2+ Channel Verapamil Site. Description: In vitro radioligand binding assay, Ca2+ channel verapamil site.
A further assay deals with Na^+ Channel Site 2. Description: In vitro radioligand binding assay, Na+ channel site 2.
In a further assay the target is H2 (Homo sapiens, UniProt P25021). Description: In vitro radioligand binding assay, H2.
The test system of assay [2] is Rat SNL Model. The assay is described as follows: SNL model of neuropathic pain, mechanical allodynia testing. The class given is in vivo. The method, then: (§1) The animals were anesthetized with isoflurane, the left L5 transverse process was removed, and the L5 and L6 spinal nerves were tightly ligated with 6-0 silk suture. The wound was then closed with internal sutures and external staples. Wound clips were removed 10-11 days following surgery.
Animals were placed on a perforated metallic platform and allowed to acclimate to their surroundings for a minimum of 30 minutes before testing. The mean and standard error of the mean (SEM) were determined for each animal in each treatment group. Since this stimulus is normally not considered painful, significant injury-induced increases in responsiveness in this test are interpreted as a measure of mechanical allodynia. Mechanical allodynia was evaluated 14 days post-surgery.
(§2) Ten rats were studied per group and the tests were performed blind. (1R,4S)-4-(3,4-dichlorophenyl)-1,2,3,4-tetrahydro-1-naphthalenamine (P) was evaluated at 3 doses (5, 10 and 15 mg/kg), administered orally and compared with a vehicle control group. Gabapentin (100 mg/kg) and duloxetine (30 mg/kg) administered orally under the same experimental conditions, were used as comparator substances. Mechanical allodynia and hyperalgesia testing were conducted at baseline and 1, 2 and 4 hours after test article administration.

For assay [3], the system named is Rat SNL Model. The assay is described as follows: SNL model of neuropathic pain, mechanical hyperalgesia testing. In kind it is in vivo. The method, then: as §1
Mechanical hyperalgesia testing: Baseline, post-injury and post-treatment values for […] mechanical sensitivity were evaluated using a Paw Pressure Analgesymeter (7200, Ugo Basile, Comerio, Italy) which generates a linearly increasing mechanical force. The mechanical nociceptive stimulus was applied to the plantar surface of the hind paws by a dome-shaped plastic tip placed between the 3rd and 4th metatarsus. […] Mechanical thresholds were defined as the force in grams at the first pain behavior, which includes paw withdrawal, struggle and/or vocalization. Paw pressure test was performed on each hind paw for each animal. The mean and standard error of the mean (SEM) were determined for each paw, in each treatment group. Mechanical hyperalgesia was evaluated 24 days post-surgery.
as §2

Assay [4] concerns rats. Description: Formalin paw test in the rat (late phase), flinches counted. In kind it is in vivo. The procedure: Rats were given an intraplantar injection of 5% formalin (50 μl) into the posterior left paw. […] The number of flinches was counted for 15 minutes, beginning 20 minutes after injection of formalin. Eight rats were studied per group. The test was performed blind. […] Data were analyzed by comparing treated groups with vehicle control using unpaired Mann-Whitney U tests.

Assay [5] concerns rats. Description: Formalin test, second test with Automated Nociception Analyzer. In kind it is in vivo, rat. The note with it: automated detection; for Number of Flinches, Acute Phase (Mean ± SEM): 0-10 minutes after formalin; for Number of Flinches, Late Phase (Mean ± SEM): 10-60 minutes after formalin. The method, then:
In a second test, flinching behaviors were measured for 90 minutes after formalin injection using an automated detection system. […] This device used a magnetic detection system to measure paw movements, called “flinches”. Small metal bands were attached to the left hind paw of rats just before placement into individual circular test chambers 30 minutes prior to formalin injection. […] In addition to duloxetine, morphine (6 mg/kg, subcutaneously) was used as a comparator substance. Animals were treated with morphine 30 minutes prior to the formalin injection. To initiate the experiment, the rats were injected with formalin subcutaneously on the dorsal surface of the left hind paw and placed in the test chambers. The instrument subsequently recorded rapid foot movements counted in one minute epochs.

The target in assay [6] is T2, Norepinephrine (NE) uptake (Rattus norvegicus, UniProt Q63380).
T2 construct: from tissue; host or cells: synaptosomes from rat hypothalamus
The assay is described as follows: Functional uptake of radiolabeled NE into synaptosomes from rat hypothalamus. In kind it is biochemical. The procedure: The 5-HT and NE assays were performed essentially as outlined in Perovic S. & Müller W. E. G., Arzneim.-Forsch.

The target of a further assay is Dopamine (DA) uptake (Rattus norvegicus, UniProt P23977). Description: biochemical.
The target in a further assay is T3, M3 receptor (Cavia porcellus, UniProt H0W1Z3).
T3 construct: from tissue; host or cells: isolated guinea pig ileum
The assay is described as follows: Carbachol-induced contraction of the isolated Guinea pig ileum. The note with it: reference antagonist.

Assay [7] has as its target T4, recombinant human Norepinephrine (NE) transporter (Homo sapiens, UniProt P23975).
T4 construct: expressed in transfected cells
The assay is described as follows: Functional uptake of NE into cells expressing recombinant human transporters. In kind it is cell-based. The conditions noted are these: read-out: IC50 inhibition of functional uptake in human transporters, Norepinephrine (NE).

Assay [8] addresses T5, recombinant human Dopamine (DA) transporter (Homo sapiens, UniProt Q01959).
T5 construct: expressed in transfected cells
The assay is described as follows: Functional uptake of DA into cells expressing recombinant human transporters. The class given is cell-based. The note with it: read-out: IC50 inhibition of functional uptake in human transporters, Dopamine (DA).

The target in the next assay is B2 (Homo sapiens, UniProt P30411). The assay is described as follows: In vitro radioligand binding assay, B2.
The target of a further assay is T6, 5-HT1A (Homo sapiens, UniProt P08908).
T6 sequence (P08908 1-422): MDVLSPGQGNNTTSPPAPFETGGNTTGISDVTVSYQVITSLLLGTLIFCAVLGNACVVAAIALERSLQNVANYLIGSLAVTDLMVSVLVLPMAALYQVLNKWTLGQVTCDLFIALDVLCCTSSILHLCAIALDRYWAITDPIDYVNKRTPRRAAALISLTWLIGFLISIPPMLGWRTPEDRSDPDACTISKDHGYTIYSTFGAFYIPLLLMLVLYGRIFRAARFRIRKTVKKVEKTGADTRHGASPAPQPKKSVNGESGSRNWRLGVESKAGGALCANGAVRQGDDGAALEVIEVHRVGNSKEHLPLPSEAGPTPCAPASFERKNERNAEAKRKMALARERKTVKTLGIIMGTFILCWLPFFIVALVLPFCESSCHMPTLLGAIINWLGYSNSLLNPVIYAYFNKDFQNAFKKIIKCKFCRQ
Description: In vitro radioligand binding assay, 5-HT1A.

Where [9] appears, read: 30 mg/kg p.o. 60 min before the test.
[10] abbreviates: 128 mg/kg p.o. 60 min before the test.

Where two headings read alike, the source gives them in different places.

T2 sequence (Q63380 1-617): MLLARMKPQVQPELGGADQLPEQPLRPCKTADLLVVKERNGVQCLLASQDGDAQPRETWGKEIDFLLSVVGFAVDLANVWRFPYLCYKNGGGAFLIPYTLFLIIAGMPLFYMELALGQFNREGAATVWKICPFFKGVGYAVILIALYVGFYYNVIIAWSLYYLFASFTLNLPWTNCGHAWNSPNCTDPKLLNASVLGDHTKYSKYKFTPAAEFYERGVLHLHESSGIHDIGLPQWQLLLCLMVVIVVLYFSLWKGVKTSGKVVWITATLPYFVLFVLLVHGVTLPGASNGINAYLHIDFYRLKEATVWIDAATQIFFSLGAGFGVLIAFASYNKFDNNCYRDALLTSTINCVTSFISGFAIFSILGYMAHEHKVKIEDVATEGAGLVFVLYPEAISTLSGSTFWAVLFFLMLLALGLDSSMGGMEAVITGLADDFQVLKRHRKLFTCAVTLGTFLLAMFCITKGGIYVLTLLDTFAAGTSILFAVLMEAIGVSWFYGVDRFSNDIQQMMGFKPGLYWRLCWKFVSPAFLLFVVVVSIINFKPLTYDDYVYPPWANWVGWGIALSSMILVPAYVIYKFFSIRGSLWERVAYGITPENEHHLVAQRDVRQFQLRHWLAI
Dopamine (DA) uptake, sequence (P23977 whole entry): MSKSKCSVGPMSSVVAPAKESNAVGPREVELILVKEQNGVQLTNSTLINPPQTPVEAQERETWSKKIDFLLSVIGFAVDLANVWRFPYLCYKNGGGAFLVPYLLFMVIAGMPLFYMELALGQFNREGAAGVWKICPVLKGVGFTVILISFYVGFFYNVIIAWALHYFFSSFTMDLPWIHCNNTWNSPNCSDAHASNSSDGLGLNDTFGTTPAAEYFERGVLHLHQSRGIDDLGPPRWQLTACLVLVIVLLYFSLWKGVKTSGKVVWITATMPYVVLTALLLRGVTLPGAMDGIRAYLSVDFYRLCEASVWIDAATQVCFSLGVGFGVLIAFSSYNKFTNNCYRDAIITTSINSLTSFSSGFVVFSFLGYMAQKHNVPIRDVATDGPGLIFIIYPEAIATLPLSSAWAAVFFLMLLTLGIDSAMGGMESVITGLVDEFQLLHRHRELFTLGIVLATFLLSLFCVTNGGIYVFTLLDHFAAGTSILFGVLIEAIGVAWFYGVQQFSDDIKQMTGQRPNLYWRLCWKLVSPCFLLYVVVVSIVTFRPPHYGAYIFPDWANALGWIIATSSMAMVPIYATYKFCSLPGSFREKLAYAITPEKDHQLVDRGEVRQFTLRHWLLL
T3 sequence (H0W1Z3 1-590): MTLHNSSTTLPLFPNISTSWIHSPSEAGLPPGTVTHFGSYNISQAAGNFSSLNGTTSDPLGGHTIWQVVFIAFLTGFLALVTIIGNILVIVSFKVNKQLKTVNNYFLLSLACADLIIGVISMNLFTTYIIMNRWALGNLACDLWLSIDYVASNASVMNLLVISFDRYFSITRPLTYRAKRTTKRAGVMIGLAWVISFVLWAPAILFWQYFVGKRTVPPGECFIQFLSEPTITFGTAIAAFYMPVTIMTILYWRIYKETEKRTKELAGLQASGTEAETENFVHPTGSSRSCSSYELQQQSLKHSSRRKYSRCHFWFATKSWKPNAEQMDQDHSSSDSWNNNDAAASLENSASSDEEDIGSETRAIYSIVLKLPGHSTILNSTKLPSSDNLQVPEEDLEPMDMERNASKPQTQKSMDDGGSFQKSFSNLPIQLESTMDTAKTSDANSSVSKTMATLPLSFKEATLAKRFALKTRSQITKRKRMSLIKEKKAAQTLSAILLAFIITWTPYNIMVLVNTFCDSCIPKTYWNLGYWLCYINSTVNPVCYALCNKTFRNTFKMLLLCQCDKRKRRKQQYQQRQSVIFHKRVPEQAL
B2, sequence (P30411 whole entry): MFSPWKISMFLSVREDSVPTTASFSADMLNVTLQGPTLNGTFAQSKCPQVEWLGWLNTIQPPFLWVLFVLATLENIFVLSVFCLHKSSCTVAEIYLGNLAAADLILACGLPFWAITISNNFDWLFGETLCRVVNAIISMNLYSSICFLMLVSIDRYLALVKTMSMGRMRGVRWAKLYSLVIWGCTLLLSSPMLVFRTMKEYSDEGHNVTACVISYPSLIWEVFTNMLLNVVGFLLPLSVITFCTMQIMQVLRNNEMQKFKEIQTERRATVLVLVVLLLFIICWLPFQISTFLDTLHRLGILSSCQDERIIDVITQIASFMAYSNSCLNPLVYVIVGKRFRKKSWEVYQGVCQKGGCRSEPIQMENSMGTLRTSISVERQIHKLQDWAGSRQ
H2, sequence (P25021 whole entry): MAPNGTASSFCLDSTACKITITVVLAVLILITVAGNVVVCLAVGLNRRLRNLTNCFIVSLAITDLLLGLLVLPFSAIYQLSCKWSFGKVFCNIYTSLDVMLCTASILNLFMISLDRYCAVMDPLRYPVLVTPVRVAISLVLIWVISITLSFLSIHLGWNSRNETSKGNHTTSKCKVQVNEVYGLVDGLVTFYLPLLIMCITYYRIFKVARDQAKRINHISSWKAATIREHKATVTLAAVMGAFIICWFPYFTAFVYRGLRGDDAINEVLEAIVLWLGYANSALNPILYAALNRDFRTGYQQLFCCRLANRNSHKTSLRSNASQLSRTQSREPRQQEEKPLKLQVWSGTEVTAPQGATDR
T5 sequence (Q01959 whole entry): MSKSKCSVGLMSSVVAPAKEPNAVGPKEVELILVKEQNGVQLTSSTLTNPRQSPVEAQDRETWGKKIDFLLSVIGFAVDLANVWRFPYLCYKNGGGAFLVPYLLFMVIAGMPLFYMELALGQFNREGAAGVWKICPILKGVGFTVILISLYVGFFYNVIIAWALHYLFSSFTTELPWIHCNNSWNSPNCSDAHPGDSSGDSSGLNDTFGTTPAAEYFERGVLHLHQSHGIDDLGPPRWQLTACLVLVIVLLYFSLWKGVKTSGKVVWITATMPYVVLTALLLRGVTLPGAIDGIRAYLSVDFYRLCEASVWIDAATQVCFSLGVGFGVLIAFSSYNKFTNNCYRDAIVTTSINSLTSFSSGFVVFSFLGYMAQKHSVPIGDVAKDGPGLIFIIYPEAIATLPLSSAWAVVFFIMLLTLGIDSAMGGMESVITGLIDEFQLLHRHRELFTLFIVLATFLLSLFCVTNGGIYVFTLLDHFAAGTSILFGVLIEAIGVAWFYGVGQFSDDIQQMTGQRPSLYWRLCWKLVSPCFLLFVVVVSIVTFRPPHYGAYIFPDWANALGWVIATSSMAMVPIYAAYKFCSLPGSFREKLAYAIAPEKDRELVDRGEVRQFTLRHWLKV
5-HT1B, sequence (P28222 whole entry, species assumed): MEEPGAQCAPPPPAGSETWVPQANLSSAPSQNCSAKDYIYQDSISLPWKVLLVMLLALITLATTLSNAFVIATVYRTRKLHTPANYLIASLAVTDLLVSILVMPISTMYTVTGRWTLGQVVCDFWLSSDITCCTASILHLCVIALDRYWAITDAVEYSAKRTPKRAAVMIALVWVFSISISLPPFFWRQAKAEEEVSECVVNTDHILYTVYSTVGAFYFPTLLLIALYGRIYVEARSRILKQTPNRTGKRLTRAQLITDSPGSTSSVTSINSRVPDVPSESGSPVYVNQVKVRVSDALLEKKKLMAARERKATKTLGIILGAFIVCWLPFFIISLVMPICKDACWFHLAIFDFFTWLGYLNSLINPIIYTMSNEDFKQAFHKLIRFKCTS
T4 sequence (P23975 whole entry): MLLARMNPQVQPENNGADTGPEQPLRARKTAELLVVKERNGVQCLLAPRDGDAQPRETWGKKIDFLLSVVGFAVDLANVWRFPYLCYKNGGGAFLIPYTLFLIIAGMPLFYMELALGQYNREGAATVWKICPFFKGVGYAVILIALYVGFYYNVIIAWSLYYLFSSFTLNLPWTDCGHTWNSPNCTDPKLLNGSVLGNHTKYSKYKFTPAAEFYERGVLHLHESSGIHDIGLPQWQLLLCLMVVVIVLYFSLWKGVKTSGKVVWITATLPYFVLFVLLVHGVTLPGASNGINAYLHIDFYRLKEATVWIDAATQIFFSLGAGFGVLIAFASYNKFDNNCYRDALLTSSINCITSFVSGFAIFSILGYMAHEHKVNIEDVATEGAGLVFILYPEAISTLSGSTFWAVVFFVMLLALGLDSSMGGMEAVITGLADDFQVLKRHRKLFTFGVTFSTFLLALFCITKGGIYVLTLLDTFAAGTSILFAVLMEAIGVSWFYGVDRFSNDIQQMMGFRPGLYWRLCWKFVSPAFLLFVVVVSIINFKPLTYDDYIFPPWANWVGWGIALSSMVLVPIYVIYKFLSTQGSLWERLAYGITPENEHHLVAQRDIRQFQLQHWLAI

For the compound `CNCCCN1c2ccccc2CCc2ccccc21` [Desipramine], the Ki (as a rule, a measure of affinity in units of concentration, obtained from inhibition or displacement) at M5 (read-out: Ki, M5) is 470 nM; at 5-HT1B, 2700 nM; in assay [1] it was 310 nM; at Na^+ Channel Site 2 it was 910 nM.

As to `COc1ccc(C(CN(C)C)C2(O)CCCCC2)cc1` (stereo not shown) [Venlafaxine], the inhibition constant Ki was 89000 nM at H2, more than 100000 nM on M5, 4800 nM in assay [1] and 12000 nM on Na^+ Channel Site 2.

As for `CNCC[C@H](Oc1cccc2ccccc12)c1cccs1` [Duloxetine, reference compound], the “Mechanical Allodynia, Paw Withdrawal Threshold (Mean ± SEM)” value in the assay on Rat SNL Model [2] (30 mg/kg PO, 0 h (Baseline)) came out at 2.6 ± 0.2 g; in the assay with Rat SNL Model [2] (30 mg/kg PO, 1 h), 7.0 ± 0.5 g; with Rat SNL Model [2] (30 mg/kg PO, 2 h) it was 7.9 ± 0.6 g; in the assay with Rat SNL Model [2] (30 mg/kg PO, 4 h), 8.1 ± 0.6 g. Also, the “Mechanical Hyperalgesia, Paw Pressure Threshold (Mean ± SEM)” value in the assay with Rat SNL Model [3] (30 mg/kg PO, 0 h (Baseline)) amounted to 153 ± 9 g; with Rat SNL Model [3] (30 mg/kg PO, 1 h), 306 ± 30 g; in the assay on Rat SNL Model [3] (30 mg/kg PO, 2 h), 345 ± 22 g; in the assay with Rat SNL Model [3] (30 mg/kg PO, 4 h), 330 ± 25 g. In the assay on rats [4] (setting [9]), the “NUMBER OF FLINCHES (20 to 35 min after formalin), mean ± s.e.m.” value is on record as 71.4 ± 17.2NS. Besides, the “NUMBER OF FLINCHES, % change from control” value in the assay with rats [4] (setting [9]) is listed as −20%. In the assay on rats [5] (30 mg/kg PO), the “Number of Flinches, Acute Phase (Mean ± SEM)” value is reported as 168 ± 24. Besides, the “Number of Flinches, Late Phase (Mean ± SEM)” value in the assay on rats [5] (30 mg/kg PO) turned out to be 803 ± 112.

With `N[C@@H]1CC[C@@H](c2ccc(Cl)c(Cl)c2)c2ccccc21` (racemic) [1:1 mixture of Compounds P & Q, trans-4-(3,4-dichlorophenyl)-1,2,3,4-tetrahydro-1-napthalenamine], the IC50 – broadly, the point on the concentration scale where inhibition reaches its midpoint – in assay [6] worked out at 8.8 nM; on Dopamine (DA) uptake it was 7.1 nM.

Take `NCC1(CC(=O)O)CCCCC1` [Gabapentin, reference compound]: the “Mechanical Allodynia, Paw Withdrawal Threshold (Mean ± SEM)” value in the assay with Rat SNL Model [2] (100 mg/kg PO, 0 h (Baseline)) worked out at 2.7 ± 0.1 g; in the assay on Rat SNL Model [2] (100 mg/kg PO, 1 h) it was 6.6 ± 0.4 g; in the assay on Rat SNL Model [2] (100 mg/kg PO, 2 h), 9.8 ± 0.5 g; in the assay with Rat SNL Model [2] (100 mg/kg PO, 4 h), 6.2 ± 0.4 g. For the same compound, the “Mechanical Hyperalgesia, Paw Pressure Threshold (Mean ± SEM)” value in the assay on Rat SNL Model [3] (100 mg/kg PO, 0 h (Baseline)) amounted to 135 ± 20 g; with Rat SNL Model [3] (100 mg/kg PO, 1 h), 219 ± 32 g; with Rat SNL Model [3] (100 mg/kg PO, 2 h) it was 236 ± 29 g; in the assay with Rat SNL Model [3] (100 mg/kg PO, 4 h), 255 ± 29 g.

Regarding `C[N+]1(C)CCC(OC(=O)C(c2ccccc2)c2ccccc2)CC1.[I-]` [Compound 4-DAMP, 4-DAMP, reference compound], on M3 receptor, the pA2 entry is “pA2 = 9.2”. At M3 receptor (read-out: IC50 for inhibition of carbachol-induced contraction of the Guinea Pig ileum), the half-inhibitory concentration (IC50) was determined as 33 nM.

As to `CN1CC[C@]23c4c5ccc(O)c4O[C@H]2[C@@H](O)C=C[C@H]3[C@H]1C5` [Morphine, reference compound], in the assay with rats [4] (setting [10]), the “NUMBER OF FLINCHES (20 to 35 min after formalin), mean ± s.e.m.” value was 0.0 ± 0.0 and the “NUMBER OF FLINCHES, % change from control” value is −100%. Also, in the assay on rats [5] (100 mg/kg SC), the “Number of Flinches, Acute Phase (Mean ± SEM)” value is 36 ± 9 and the “Number of Flinches, Late Phase (Mean ± SEM)” value is given as 32 ± 13.

For the compound `CC(NC(C)(C)C)C(=O)c1cccc(Cl)c1` (stereo not shown) [Bupropion, reference compound], the IC50 in [6] was 611 nM; against Dopamine (DA) uptake it was 294 nM.

As to `N[C@H]1CC[C@H](c2ccc(Cl)c(Cl)c2)c2ccccc21` [Compound Q, (1S,4R)-trans 4-(3,4-dichlorophenyl)-1,2,3,4-tetrahydro-1-napthalenamine], the IC50 in [6] worked out at 35 nM; in [7], 16.5 nM; in assay [8], 14.4 nM; against Dopamine (DA) uptake, 19 nM.

Compound `CN(C)CCCC1(c2ccc(F)cc2)OCc2cc(C#N)ccc21` (stereo not shown) [Citalopram] had an IC50 in [6] of 7900 nM. Further, the Ki on B2 is more than 100000 nM; on M5 (read-out: Ki, M5) it was 29000 nM; at 5-HT1A it was 15000 nM.
